Residues, ends and D or L forms follow the SMILES beside them.
Legend:
Glucagon receptor = Glucagon receptor (Homo sapiens, UniProt P47871); assay: Agonist activity at GCGR expressed in HEK293 cells assessed as stimulation of cAMP production by luciferase reporter gene assay; format: functional, cell-based
[1] = target: Glucagon-like peptide 1 receptor (Homo sapiens, UniProt P43220); assay: Agonist activity at GLP1R expressed in HEK293 cells assessed as stimulation of cAMP production by luciferase reporter gene assay; format: functional, cell-based
Glucagon-like peptide 1 receptor, sequence (P43220 whole entry): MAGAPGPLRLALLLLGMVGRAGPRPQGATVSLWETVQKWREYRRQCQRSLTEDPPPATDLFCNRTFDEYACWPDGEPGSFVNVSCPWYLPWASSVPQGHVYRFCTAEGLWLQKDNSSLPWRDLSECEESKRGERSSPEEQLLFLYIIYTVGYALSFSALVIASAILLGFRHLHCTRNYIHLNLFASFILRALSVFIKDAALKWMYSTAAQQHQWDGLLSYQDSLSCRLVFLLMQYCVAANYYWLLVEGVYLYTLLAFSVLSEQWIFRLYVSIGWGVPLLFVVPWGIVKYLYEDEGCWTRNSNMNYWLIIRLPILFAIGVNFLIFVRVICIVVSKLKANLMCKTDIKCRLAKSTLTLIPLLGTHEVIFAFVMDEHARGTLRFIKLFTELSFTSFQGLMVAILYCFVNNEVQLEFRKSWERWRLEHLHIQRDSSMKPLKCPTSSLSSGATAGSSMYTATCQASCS

Glucagon receptor, sequence (P47871 whole entry): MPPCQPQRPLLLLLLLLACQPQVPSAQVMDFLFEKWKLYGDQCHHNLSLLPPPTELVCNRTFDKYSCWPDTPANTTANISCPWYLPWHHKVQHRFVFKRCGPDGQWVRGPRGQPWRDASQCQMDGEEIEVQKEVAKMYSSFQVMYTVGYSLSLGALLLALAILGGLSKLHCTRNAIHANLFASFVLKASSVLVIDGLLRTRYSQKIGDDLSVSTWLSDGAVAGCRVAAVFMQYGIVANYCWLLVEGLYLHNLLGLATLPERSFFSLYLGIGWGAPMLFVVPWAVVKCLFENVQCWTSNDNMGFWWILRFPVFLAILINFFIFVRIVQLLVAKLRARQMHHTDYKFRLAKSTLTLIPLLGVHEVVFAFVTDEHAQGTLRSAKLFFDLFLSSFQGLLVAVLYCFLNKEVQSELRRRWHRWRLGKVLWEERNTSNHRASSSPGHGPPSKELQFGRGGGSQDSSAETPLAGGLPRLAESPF

| EC50 (Glucagon receptor) | EC50 [1] | EC50 (Glucagon receptor; hek293) | EC50 ([1]; hek293) | Compound |
| --- | --- | --- | --- | --- |
| 2.4 nM | 0.028 nM | – | – | CC[C@H](C)[C@H](NC(=O)[C@H](Cc1ccccc1)NC(=O)[C@H](CCC(=O)O)NC(=O)[C@H](CCCCN)NC(=O)[C@H](C)NC(=O)[C@H](C)NC(=O)[C@H](CCC(N)=O)NC(=O)[C@H](CCC(=O)O)NC(=O)[C@H](CC(=O)O)NC(=O)[C@H](CC(C)C)NC(=O)[C@H](Cc1ccc(O)cc1)NC(=O)[C@H](CCCCN)NC(=O)[C@H](CO)NC(=O)[C@H](Cc1ccc(O)cc1)NC(=O)[C@H](CC(=O)O)NC(=O)[C@H](CO)NC(=O)[C@@H](NC(=O)[C@H](Cc1ccccc1)NC(=O)[C@@H](NC(=O)CNC(=O)[C@H](CCC(=O)O)NC(=O)[C@H](CO)N[C@@H](Cc1cnc[nH]1)C(=O)O)[C@@H](C)O)[C@@H](C)O)C(=O)N[C@@H](C)C(=O)N[C@@H](Cc1c[nH]c2ccccc12)C(=O)N[C@@H](CC(C)C)C(=O)N[C@@H](CCSC)C(=O)N[C@@H](CC(N)=O)C(=O)N[C@H](C(=O)O)[C@@H](C)O |
| > 1000 nM | 0.011 nM | – | – | CC[C@H](C)[C@H](NC(=O)[C@H](Cc1ccccc1)NC(=O)[C@H](CCC(=O)O)NC(=O)[C@H](CCCCN)NC(=O)[C@H](C)NC(=O)[C@H](C)NC(=O)[C@H](CCC(=O)O)NC(=O)[C@H](CCC(=O)O)NC(=O)[C@H](CCC(=O)O)NC(=O)[C@H](CC(C)C)NC(=O)[C@H](Cc1ccc(O)cc1)NC(=O)[C@H](CO)NC(=O)[C@H](CO)NC(=O)[C@@H](NC(=O)[C@H](CC(=O)O)NC(=O)[C@H](CO)NC(=O)[C@@H](NC(=O)[C@H](Cc1ccccc1)NC(=O)[C@@H](NC(=O)CNC(=O)[C@H](CCC(=O)O)NC(=O)[C@H](C)N[C@@H](Cc1cnc[nH]1)C(=O)O)[C@@H](C)O)[C@@H](C)O)C(C)C)C(=O)N[C@@H](C)C(=O)N[C@@H](Cc1c[nH]c2ccccc12)C(=O)N[C@@H](CC(C)C)C(=O)N[C@H](C(=O)N[C@@H](CCCCN)C(=O)NCC(=O)N[C@@H](CCN=C(N)N)C(N)=O)C(C)C |
| 0.12 nM | 0.13 nM | – | – | CSCC[C@H](NC(=O)[C@H](CC(C)C)NC(=O)[C@H](Cc1c[nH]c2ccccc12)NC(=O)[C@H](CCC(N)=O)NC(=O)[C@@H](NC(=O)[C@H](Cc1ccccc1)NC(=O)[C@H](CC(=O)O)NC(=O)[C@H](CCCCN)NC(=O)[C@H](C)NC(=O)[C@H](CCCN=C(N)N)NC(=O)[C@H](CCCN=C(N)N)NC(=O)[C@H](CO)NC(=O)[C@H](CC(=O)O)NC(=O)[C@H](CC(C)C)NC(=O)[C@H](Cc1ccc(O)cc1)NC(=O)[C@H](CCCCN)NC(=O)[C@H](CO)NC(=O)[C@H](Cc1ccc(O)cc1)NC(=O)[C@H](CC(=O)O)NC(=O)[C@H](CO)NC(=O)[C@@H](NC(=O)[C@H](Cc1ccccc1)NC(=O)[C@@H](NC(=O)CNC(=O)[C@H](CCC(N)=O)NC(=O)[C@H](CO)N[C@@H](Cc1cnc[nH]1)C(=O)O)[C@@H](C)O)[C@@H](C)O)C(C)C)C(=O)N[C@@H](CC(N)=O)C(=O)N[C@H](C(N)=O)[C@@H](C)O |
| 0.046 nM | 0.051 nM | – | – | CSCC[C@H](NC(=O)[C@H](CC(C)C)NC(=O)[C@H](Cc1c[nH]c2ccccc12)NC(=O)[C@H](CCC(N)=O)NC(=O)[C@@H](NC(=O)[C@H](Cc1ccccc1)NC(=O)[C@H](CC(=O)O)NC(=O)[C@H](CCC(N)=O)NC(=O)[C@H](C)NC(=O)[C@H](CCCN=C(N)N)NC(=O)[C@H](CCCN=C(N)N)NC(=O)[C@@H]1CCC(=O)NCCCC[C@H](NC(=O)[C@H](CO)NC(=O)[C@H](Cc2ccc(O)cc2)NC(=O)[C@H](CC(=O)O)NC(=O)[C@H](CO)NC(=O)[C@@H](NC(=O)[C@H](Cc2ccccc2)NC(=O)[C@@H](NC(=O)CNC(=O)[C@H](CCC(N)=O)NC(=O)[C@H](CO)N[C@@H](Cc2cnc[nH]2)C(=O)O)[C@@H](C)O)[C@@H](C)O)C(=O)N[C@@H](Cc2ccc(O)cc2)C(=O)N[C@@H](CC(C)C)C(=O)N[C@@H](CC(=O)O)C(=O)N1)C(C)C)C(=O)N[C@@H](CC(N)=O)C(=O)N[C@H](C(=O)O)[C@@H](C)O |
| 0.058 nM | 0.049 nM | – | – | CSCC[C@H](NC(=O)[C@H](CC(C)C)NC(=O)[C@H](Cc1c[nH]c2ccccc12)NC(=O)[C@H](CCC(N)=O)NC(=O)[C@@H](NC(=O)[C@H](Cc1ccccc1)NC(=O)[C@H](CC(=O)O)NC(=O)[C@@H]1CCCCNC(=O)CC[C@H](NC(=O)[C@H](CC(=O)O)NC(=O)[C@H](CC(C)C)NC(=O)[C@H](Cc2ccc(O)cc2)NC(=O)[C@H](CCCCN)NC(=O)[C@H](CO)NC(=O)[C@H](Cc2ccc(O)cc2)NC(=O)[C@H](CC(=O)O)NC(=O)[C@H](CO)NC(=O)[C@@H](NC(=O)[C@H](Cc2ccccc2)NC(=O)[C@@H](NC(=O)CNC(=O)[C@H](CCC(N)=O)NC(=O)[C@H](CO)N[C@@H](Cc2cnc[nH]2)C(=O)O)[C@@H](C)O)[C@@H](C)O)C(=O)N[C@@H](CCCNC(=N)N)C(=O)N[C@@H](CCCNC(=N)N)C(=O)N[C@@H](C)C(=O)N1)C(C)C)C(=O)N[C@@H](CC(N)=O)C(=O)N[C@H](C(=O)O)[C@@H](C)O |
| 0.078 nM | 0.24 nM | – | – | CSCC[C@H](NC(=O)[C@H](CC(C)C)NC(=O)[C@H](Cc1c[nH]c2ccccc12)NC(=O)[C@@H]1CCC(=O)NCCCC[C@H](NC(=O)[C@H](C)NC(=O)[C@H](CCCN=C(N)N)NC(=O)[C@H](CCCN=C(N)N)NC(=O)[C@H](CO)NC(=O)[C@H](CC(=O)O)NC(=O)[C@H](CC(C)C)NC(=O)[C@H](Cc2ccc(O)cc2)NC(=O)[C@H](CCCCN)NC(=O)[C@H](CO)NC(=O)[C@H](Cc2ccc(O)cc2)NC(=O)[C@H](CC(=O)O)NC(=O)[C@H](CO)NC(=O)[C@@H](NC(=O)[C@H](Cc2ccccc2)NC(=O)[C@@H](NC(=O)CNC(=O)[C@H](CCC(N)=O)NC(=O)[C@H](CO)N[C@@H](Cc2cnc[nH]2)C(=O)O)[C@@H](C)O)[C@@H](C)O)C(=O)N[C@@H](CC(=O)O)C(=O)N[C@@H](Cc2ccccc2)C(=O)N[C@@H](C(C)C)C(=O)N1)C(=O)N[C@@H](CC(N)=O)C(=O)N[C@H](C(=O)O)[C@@H](C)O |
| 0.076 nM | 0.18 nM | – | – | CSCC[C@@H]1NC(=O)[C@H](CC(C)C)NC(=O)[C@H](Cc2c[nH]c3ccccc23)NC(=O)[C@@H](NC(=O)[C@@H](NC(=O)[C@H](Cc2ccccc2)NC(=O)[C@H](CC(=O)O)NC(=O)[C@H](CCC(N)=O)NC(=O)[C@H](C)NC(=O)[C@H](CCCN=C(N)N)NC(=O)[C@H](CCCN=C(N)N)NC(=O)[C@H](CO)NC(=O)[C@H](CC(=O)O)NC(=O)[C@H](CC(C)C)NC(=O)[C@H](Cc2ccc(O)cc2)NC(=O)[C@H](CCCCN)NC(=O)[C@H](CO)NC(=O)[C@H](Cc2ccc(O)cc2)NC(=O)[C@H](CC(=O)O)NC(=O)[C@H](CO)NC(=O)[C@@H](NC(=O)[C@H](Cc2ccccc2)NC(=O)[C@@H](NC(=O)CNC(=O)[C@H](CCC(N)=O)NC(=O)[C@H](CO)N[C@@H](Cc2cnc[nH]2)C(=O)O)[C@@H](C)O)[C@@H](C)O)C(C)C)CCC(=O)NCCCC[C@@H](C(=O)N[C@H](C(=O)O)[C@@H](C)O)NC1=O |
| – | – | 50 nM | 0.18 nM | CSCC[C@H](NC(=O)[C@H](CC(C)C)NC(=O)[C@H](Cc1c[nH]c2ccccc12)NC(=O)[C@H](CCC(N)=O)NC(=O)[C@@H](NC(=O)[C@H](Cc1ccccc1)NC(=O)[C@H](CC(=O)O)NC(=O)[C@H](CCC(N)=O)NC(=O)[C@H](C)NC(=O)[C@H](CCCNC(=N)N)NC(=O)[C@H](CCCNC(=N)N)NC(=O)[C@H](CCC(=O)O)NC(=O)[C@H](CCC(=O)O)NC(=O)[C@H](CC(C)C)NC(=O)[C@H](Cc1ccc(O)cc1)NC(=O)[C@H](CO)NC(=O)[C@H](CO)NC(=O)[C@@H](NC(=O)[C@H](CC(=O)O)NC(=O)[C@H](CO)NC(=O)[C@@H](NC(=O)[C@H](Cc1ccccc1)NC(=O)[C@@H](NC(=O)CNC(=O)[C@H](CCC(=O)O)NC(=O)[C@H](C)NC(=O)[C@@H](N)Cc1cnc[nH]1)[C@@H](C)O)[C@@H](C)O)C(C)C)C(C)C)C(=O)N[C@@H](CC(N)=O)C(=O)N[C@H](C(=O)O)[C@@H](C)O (H-HAEGTFTSDVSSYLEERRAQDFVQWLMNT-OH) |
| – | – | 0.068 nM | 0.026 nM | CC[C@H](C)[C@H](NC(=O)[C@H](Cc1ccccc1)NC(=O)[C@H](CCC(=O)O)NC(=O)[C@H](CCCCN)NC(=O)[C@H](C)NC(=O)[C@H](C)NC(=O)[C@H](CCC(N)=O)NC(=O)[C@H](CCC(=O)O)NC(=O)[C@H](CC(=O)O)NC(=O)[C@H](CC(C)C)NC(=O)[C@H](Cc1ccc(O)cc1)NC(=O)[C@H](CCCCN)NC(=O)[C@H](CO)NC(=O)[C@H](Cc1ccc(O)cc1)NC(=O)[C@H](CC(=O)O)NC(=O)[C@H](CO)NC(=O)[C@@H](NC(=O)[C@H](Cc1ccccc1)NC(=O)[C@@H](NC(=O)CNC(=O)[C@H](CCC(N)=O)NC(=O)[C@H](CO)NC(=O)[C@@H](N)Cc1cnc[nH]1)[C@@H](C)O)[C@@H](C)O)C(=O)N[C@@H](C)C(=O)N[C@@H](Cc1c[nH]c2ccccc12)C(=O)N[C@@H](CC(C)C)C(=O)N[C@@H](CCSC)C(=O)N[C@@H](CC(N)=O)C(=O)N[C@H](C(=O)O)[C@@H](C)O (H-HSQGTFTSDYSKYLDEQAAKEFIAWLMNT-OH) |
| – | – | 0.47 nM | 0.015 nM | CC[C@H](C)[C@H](NC(=O)[C@H](Cc1ccccc1)NC(=O)[C@H](CCC(=O)O)NC(=O)[C@H](CCCCN)NC(=O)[C@H](C)NC(=O)[C@H](C)NC(=O)[C@H](CCC(N)=O)NC(=O)[C@H](CCC(=O)O)NC(=O)[C@H](CC(=O)O)NC(=O)[C@H](CC(C)C)NC(=O)[C@H](Cc1ccc(O)cc1)NC(=O)[C@H](CCCCN)NC(=O)[C@H](CO)NC(=O)[C@H](Cc1ccc(O)cc1)NC(=O)[C@H](CC(=O)O)NC(=O)[C@H](CO)NC(=O)[C@@H](NC(=O)[C@H](Cc1ccccc1)NC(=O)[C@@H](NC(=O)CNC(=O)[C@H](CCC(N)=O)NC(=O)[C@H](CO)NC(=O)[C@@H](N)Cc1cnc[nH]1)[C@@H](C)O)[C@@H](C)O)C(=O)N[C@@H](C)C(=O)N[C@@H](Cc1c[nH]c2ccccc12)C(=O)N[C@@H](CC(C)C)C(=O)N[C@H](C(=O)N[C@@H](CCCCN)C(=O)NCC(=O)O)C(C)C (H-HSQGTFTSDYSKYLDEQAAKEFIAWLVKG-OH) |
